Test results: patent US9028887B2, “Method improve spatial memory via pterostilbene administration” (The United States of America, as represented by the …, priority 2007, dated 2015)

Columns and labels:
[1] = tested on: M1-transfected COS-7 cells; assay: Calcium recovery in M1-transfected COS-7 cells after dopamine treatment and oxotremorine-induced depolarization; format: cell-based, African green monkey; details: 10 μg/ml pre-treatment 45 min, then 1 mM dopamine 4 hours; 750 μM oxotremorine depolarization
Experimental: COS-7 cells, a cell line derived from African green monkey kidney, were grown in Dulbecco's Modified Eagle's Medium (D-MEM) supplemented with 10% fetal bovine serum (FBS) and containing 100 U/ml penicillin and 100 μg/ml streptomycin sulfate. Twenty four hours prior to transfection, cells were harvested with trypsin, counted, and plated on […] tissue culture plates at 5×10^6 cells/plate. Cells were transiently transfected with rat muscarinic receptor subtype 1 DNA by the DEAE-dextran method. After transfection, cells were incubated 2.5 hours in growth medium containing 80 μM chloroquine to minimize degradation of the DNA. Transfected cells were then maintained in growth medium for 48 hours, harvested with trypsin, plated to coverslips in 35 mm plates for calcium imaging, and incubated overnight.
Dis. 6:403-411, and hereby incorporated by reference. The BB extract and stilbenes were dissolved in growth media and cells were subsequently incubated for 45 minutes at 37° C. with the treated growth medium, followed by dopamine administration for 4 hours. Following these incubations, the cells were washed three times with extract-free growth medium prior to testing.
Calcium imaging was carried out using a Medical Systems Corp. open perfusion micro-incubator (37° C.) with temperature control that was mounted on the stage of a Nikon Eclipse TE200U microscope and illuminated with a fluorescent light source. Transfected cells were loaded with Fura-2/acetoxymethyl ester (2 μM) in loading medium (99% DMEM 1% FES) for 40 minutes at 37° C. with 5% CO2.
Real time analyses of calcium flux prior to and following 750 μM oxotremorine-induced depolarization were then carried out using Simple PCI software (Compix, Inc. Mars, Pa.). Response and recovery were then determined for each sample. […] Recovery was determined by assessing the time (within 300 sec) for the Ca^2+ levels to return to 20% of the increase following depolarization in the cells that responded. Data was analyzed by Kruskal-Wallis one-way analysis of variance and Mann-Whitney U tests.

striatal slices = assay: Oxotremorine enhancement of K+-evoked dopamine release from striatal slices of diet-fed rats; format: in vivo, rat; details: for dopamine release (oxotremorine-enhanced striatal K+-ERDA), H2O2-treated vs non-H2O2-treated: 50 μM H2O2, 500 μM oxotremorine
Description: The muscarinic enhancement of K^+-evoked dopamine release (K^+-ERDA) from superfused striatal slices is an indicator of receptor sensitivity and striatal function and is sensitive to aging and oxidative stress as disclosed in Joseph et al., 1988. Brain Res., 454:140-8: Joseph et al., 1988. Brain Res., 454:149-55; Joseph J., et al., 1990. Brain Res., 537:40-48; Joseph et al., 1996. Free Radic. Biol. Med., 20: 821-30 and herein incorporated by reference. Additionally, muscarinic enhancement of dopamine release is sensitive to dietary supplementation as disclosed in Joseph et al., 1998. J. Neurosci., 18: 8047-8055; Joseph et al., 1999. J. Neurosci., 19: 8114-8121; Youdim et al., 2000. Nutr Neurosci., 3: 383-97; Shukitt-Hale et al., 2005. Age., 27: 49-57; Shukitt-Hale et al., 2006. Nutrition, 22: 295-302 and herein incorporated by reference. The protective capacity of the striatal tissue obtained from the control and supplemented groups were assessed by examining differences in the oxotremorine-enhancement of striatal K^+-ERDA. Dopamine release was conducted 2-3 weeks following behavioral testing on freshly dissected and cross cut (300 μm, McIlwain tissue chopper) striatal slices from subject brains that were fed a high dose, low dose and control diet. The slices were placed in small glass vials containing modified Krebs-Ringer basal release medium (BRM) that had been bubbled for 30 min with 95% O2/5% CO2 and containing 21 mM NaHCO3, 3.4 mM glucose, 1.3 mM NaH2PO4, 1 mM EGTA, 0.93 mM MgCl2, 127 mM NaCl and 2.5 mM KCl (low KCl) (pH 7.4). Half of the tissue was treated with 50 μM […] to assess the effect of diet under conditions of oxidative stress. […] Following this equilibration period, the medium was switched to one containing (in mM) KCl 30 (high KCl), CaCl2.2H2O 1.26 (in place of EGTA), NaCl 57, and 0 or 500 μM oxotremorine and then the enhancement of K^+-ERDA was assessed. Dopamine release was quantitated by HPLC coupled to electrochemical detection and expressed as pmoles/mg protein as determined by the Lowry procedure.

[2] = target: T1, peroxisome proliferator-activated alpha isoform, (PPARα) (Homo sapiens, UniProt Q07869); details: Rimando et al., 2005; cited from earlier work
T1 sequence (Q07869 1-468): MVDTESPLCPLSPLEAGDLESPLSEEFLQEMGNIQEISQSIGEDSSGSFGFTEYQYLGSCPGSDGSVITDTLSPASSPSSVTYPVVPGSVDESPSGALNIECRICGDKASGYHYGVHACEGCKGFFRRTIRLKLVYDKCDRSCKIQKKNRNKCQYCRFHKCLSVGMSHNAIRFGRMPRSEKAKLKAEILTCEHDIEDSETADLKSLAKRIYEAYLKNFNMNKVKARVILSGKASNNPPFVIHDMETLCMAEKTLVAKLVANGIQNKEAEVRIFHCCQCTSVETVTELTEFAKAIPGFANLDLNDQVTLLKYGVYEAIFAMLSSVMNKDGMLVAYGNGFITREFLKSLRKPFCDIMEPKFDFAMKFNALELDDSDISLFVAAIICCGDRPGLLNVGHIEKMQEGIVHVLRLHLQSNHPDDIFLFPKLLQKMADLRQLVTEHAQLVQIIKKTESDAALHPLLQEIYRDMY

weanling male F344 rats = details: Suh et al., 2007; cited from earlier work
[3] = compared with resveratrol; Rimando et al., 2002; Stivala et al., 2001; cited from earlier work

In the case of COc1cc(/C=C/c2ccc(O)cc2)cc(OC)c1 [pterostilbene, trans-3,5-dimethoxy-4′-hydroxystilbene], the “protection against dopamine-induced decreases in Ca2+ Recovery” value [1] is reported as “protected against the dopamine-induced decreases in Recovery”, the “dopamine release (oxotremorine-enhanced striatal K+-ERDA) among diet groups” value (striatal slices; basal conditions (no H2O2), low and high dose vs control diet, p>0.05) is reported as “no differences among the diet groups” and the “dopamine release (oxotremorine-enhanced striatal K+-ERDA), H2O2-treated vs non-H2O2-treated” value (striatal slices; high dose diet 0.016%) is reported as “no differences were seen following H2O2 treatment”. The “dopamine release (oxotremorine-enhanced striatal K+-ERDA), H2O2-treated vs non-H2O2-treated” value (striatal slices; low dose diet 0.004%) was “no differences were seen following H2O2 treatment”, the “activation of PPARα” value [2] was “identified to activate” and the “azoxymethane-induced colonic aberrant crypt foci growth” value (weanling male F344 rats) was “suppressed azoxymethane-induced colonic aberrant crypt foci growth”. The antioxidant activity [3] was “antioxidant activity similar to that of resveratrol”.
